Values of other authors, collected in patent US20180237441A1, “Chemical Compounds” (GlaxoSmithKline Intellectual Property (No.2) Limited, priority 2015, published 2018).

System: prion infected mice
Settings: cited from earlier work

Cn1cc(-c2ccc3c(c2)CCN3C(=O)Cc2cccc(C(F)(F)F)c2)c2c(N)ncnc21 [GSK2606414, 7-methyl-5-(1-{[3-(trifluoromethyl)phenyl]acetyl}-2,3-dihydro-1H-indol-5-yl)-7H-pyrrolo[2,3-d]pyrimidin-4-amine]
neuroprotective effect and clinical signs of disease: provide a neuroprotective effect and prevent clinical signs of disease
